Experimental data reported in patent publication US20010006969A1, “PYRIMIDINE NUCLEUS-CONTAINING COMPOUND AND A MEDICAMENT CONTAINING THE SAME FOR A BLOOD OXYGEN PARTIAL PRESSURE AMELIORATION, AND A METHOD FOR PREPARING THE SAME” (priority 1997, published 2001).
Counter-ions that a name gives are not always drawn.

SMILES	melting point
C=CCN(C(=O)NC(C)(C)C)c1nc(NC(=O)NC(C)(C)C)c2cc([N+](=O)[O-])ccc2n1 [Example 41, 2-[N-allyl-N-(t-butylcarbamoyl)amino]-4-(t-butylcarbamoyl)amino-6-nitroquinazoline]	105 to 106 °C
C=CCNc1nc(NCc2ccccn2)nc2ccc([N+](=O)[O-])cc12 [Example 54, 4-Allylamino-6-nitro-2-(2-pyridylmethylamino)quinazoline]	202 to 203 °C
C=CCNc1nc(NC(=O)OCC(C)C)c2cc([N+](=O)[O-])ccc2n1 [Example 43, 2-Allylamino-4-(2-methylpropoxycarbonyl)amino-6-nitroquinazoline]	148 to 149 °C
C=CCNc1nc(NCCOC)nc2ccc([N+](=O)[O-])cc12 [Example 8, 4-Allylamino-2-(2-methoxyethylamino)-6-nitroquinazoline]	164 to 165 °C
C=CCNc1nc(NCC=C)c2cc(N)ccc2n1 [Example 14, 2,4-Diallylamino-6-aminoquinazoline]	212 to 215 °C
C=CCNc1nc(NC(C)=O)nc2ccc([N+](=O)[O-])cc12 [Example 44, 2-Acetylamino-4-allylamino-6-nitroquinazoline]	239 to 240 °C
C=CCNc1nc(NC(C)CC)c2cc([N+](=O)[O-])ccc2n1 (stereo not drawn) (as salt: hydrochloride) [Example 49, 2-Allyiamino-4-(l-methylpropylamino)-6-nitroquinazoline hydrochloride]	176 to 177 °C
C=CCNc1nc(NCC(C)(C)C)c2cc([N+](=O)[O-])ccc2n1 [Example 11, 2-Allylamino-4-neopentylamino-6-nitroauinazoline]	216 to 217 °C
C=CCNc1nc(NCCCCCCCCCCCC)nc2ccc([N+](=O)[O-])cc12 [Example 48, 4-Allylamino-2-dodecylamino-6-nitroquinazoline]	148 to 155 °C
C=CCNc1nc(NCC)nc2ccc([N+](=O)[O-])cc12 [Example 17, 4-Allylamino-2-ethylamino-6-nitroquinazoline]	227 to 228 °C
C=CCNc1nc(NC(=O)NCCC)nc2ccc([N+](=O)[O-])cc12 [Example 45, 4-Allylamino-6-nitro-2-(propylcarbamoyl)aminoquinazoline]	254 to 255 °C
C=CCNc1nc(NC(C)CC)nc2ccc([N+](=O)[O-])cc12 (centres unmarked) (as salt: hydrochloride)	219 to 220 °C
C=CCNc1nc(NCc2ccco2)nc2ccc([N+](=O)[O-])cc12 (as salt: hydrochloride) [Example 33, 4-Allylamino-2-furfurylamino-6-nitroquinazoline hydrochloride]	217 to 218 °C
C=CCNc1nc(N(CC=C)CC=C)nc2ccc(Cl)cc12 [Example 15, 4-Allylamino-2-diallylamino-6-chloroquinazoline]	73 to 74 °C
C=CCNc1nc(NC)nc2ccc([N+](=O)[O-])cc12 [Example 16, 4-Allylamino-2-methylamino-6-nitroquinazoline]	238 to 239 °C
C=CCNc1nc(NN2CCCCC2)nc2ccc([N+](=O)[O-])cc12 [Example 37, 4-Allylamino-6-nitro-2-piperidinoaminoquinazoline]	221 to 222 °C

SMILES	melting point
C=CCNc1nc(NC(=O)NC(C)(C)C)c2cc([N+](=O)[O-])ccc2n1 [Example 40, 2-Allylamino-4-(t-butylcarbamoyl)amino-6-nitroquinazoline]	200 to 201 °C
C=CCNc1nc(NC(C)(C)C)c2cc([N+](=O)[O-])ccc2n1 (as salt: hydrochloride)	208 to 209 °C
C=CCNc1nc(NCC(F)(F)F)nc2ccc([N+](=O)[O-])cc12 [Example 56, 4-Allylamino-2-(2,2,2-trifluoroethylamino)-6-nitroquinazoline]	221 to 222 °C
C=CCNc1nc(NCCC(=O)N2CCCCC2)nc2ccc([N+](=O)[O-])cc12 [Example 53, 4-Allylamino-6-nitro-2-[2-(piperidinocarbonyl)ethylamino] quinazoline]	178 to 179 °C
C=CCNc1nc(N(CC=C)CC=C)c2scc(C)c2n1 (as salt: hydrochloride) [Example 71, 2-Allylamino-4-diallylamino-7-methylthieno[3,2-d] pyrimidine hydrochloride]	76 to 78 °C (dec.)
C=CCNc1nc(NCc2ccccc2)c2cc([N+](=O)[O-])ccc2n1 [Example 12, 2-Allylamino-4-benzylamino-6-nitroquinazoline]	235 to 236 °C
C=CCNc1nc(NCC(F)(F)F)c2cc([N+](=O)[O-])ccc2n1 [Example 55, 2-Allylamino-4-(2,2,2-trifluoroethylamino)-6-nitroquinazoline]	215 to 216 °C
C=CCNc1nc(NCC=C)c2cc(NC)ccc2n1 (as salt: hydrochloride)	155 to 158 °C
C=CCNc1nc(NC2CCCCC2)c2scc(C)c2n1 (as salt: hydrochloride) [Example 70, 2-Allylamino-4-cyclohexylamino-7-methylthieno[3,2-d] pyrimidine hydrochloride]	140 to 142 °C
C#CCNc1nc(NCC=C)c2cc([N+](=O)[O-])ccc2n1 [Example 29, 4-Allylamino-6-nitro-2-(2-propynylamino)quinazoline]	192 to 193 °C
C=CCNc1nc(NC(C)=O)c2cc([N+](=O)[O-])ccc2n1 [Example 42, 4-Acetylamino-2-allylamino-6-nitroquinazoline]	253 to 254 °C
C=CCNc1nc(N2CCCCC2)c2cc([N+](=O)[O-])ccc2n1 [Example 13, 2-Allylamino-6-nitro-4-piperidinoquinazoline]	123 to 124 °C
C=CCNc1nc(NC(C)(C)C)nc2ccc([N+](=O)[O-])cc12 [Example 19, 4-Allylamino-2-t-butylamino-6-nitroquinazoline]	139 to 140 °C
C=CCNc1nc(NC(=O)NC(C)(C)C)c2scc(C)c2n1 (as salt: hydrochloride)	192 to 194 °C
C=CCNc1nc(NCCN)nc2ccc([N+](=O)[O-])cc12 [Example 20, 4-Allylamino-2-(2-aminoethylamino)-6-nitroquinazoline]	126 to 128 °C

Continued, values first:

melting point	SMILES
163 to 164 °C	C=CCNc1nc(NC(CO)CO)c2scc(C)c2n1 [Example 73, 2-Allylamino-4-(1,3-dihydroxypropan-2-yl)amino-7-methylthieno[3,2-d]pyrimidine]
122 to 125 °C	C=CC(C)Nc1nc(NC(C)C=C)c2cc([N+](=O)[O-])ccc2n1 (centres unmarked) [Example 64, 2,4-Bis(1-methyl-2-propenylamino)-6-nitroquinazoline]
95 to 96 °C	C#CCNc1nc(NCC=C)nc2c(C)csc12 [Example 99, 2-Allylamino-7-methyl-4-(2-propynylamino)thieno[3,2-d] pyrimidine]
123 to 124 °C	C=CCNc1nc(NC(C)C=C)nc2ccc([N+](=O)[O-])cc12 (centres unmarked) [Example 65, 4-Allylamino-2-(1-methyl-2-propenylamino)-6-nitroquinazoline]
152 to 153 °C	C=CCNc1nc(NC(=O)NC2CCCCC2)c2scc(C)c2n1 [Example 93, 2-Allylamino-4-(cyclohexylcarbamoyl)amino-7-methylthieno[3,2-d]pyrimidine]
194 to 195 °C	C=CCNc1nc(NCC=C(C)C)nc2ccc([N+](=O)[O-])cc12 [Example 58, 4-Allylamino-2-(3-methyl-2-butenylamino)-6-nitroquinazoline]
74 to 75 °C	C=CCNc1nc(NCCC)nc2c(C)csc12 [Example 86, 4-Allylamino-7-methyl-2-propylaminothieno[3,2-d] pyrimidine]
87 to 88 °C	C=CCNc1nc(NCCOC)nc2c(C)csc12 [Example 85, 4-Allylamino-2-(2-methoxyethylamino)-7-methylthieno[3,2-d] pyrimidine]
97 to 98 °C	C=CCNc1nc(NCc2ccccc2)c2scc(C)c2n1 [Example 69, 2-Allylamino-4-benzylamino-7-methylthieno[3,2-d] pyrimidine]
168 to 172 °C	CC(C)=CCNc1nc(NCC=C(C)C)c2cc([N+](=O)[O-])ccc2n1 [Example 61, 2,4-Bis(3-methyl-2-butenylamino)-6-nitroquinazoline]
209 to 210 °C	C=CCNc1nc(NCC=C(C)C)c2cc([N+](=O)[O-])ccc2n1 [Example 59, 2-Allylamino-4-(3-methyl-2-butenylamino)-6-nitroquinazoline]
114 to 115 °C	C=CCNc1nc(NCC=C(C)C)c2scc(C)c2n1 [Example 101, 2-Allylamino-7-methyl-4-(3-methyl-2-butenylamino)thieno[3,2-d]pyrimidine]
106 to 107 °C	C=CCNc1nc(NC(C)C)c2scc(C)c2n1 [Example 77, 2-Allylamino-4-isopropylamino-7-methylthieno[3,2-d] pyrimidine]
88 to 89 °C	C=CCNc1nc(NC(=O)C(C)(C)C)c2scc(C)c2n1 [Example 90, 2-Allylamino-7-methyl-4-pivaloylaminothieno[3,2-d] pyrimidine]
164 to 165 °C	C=CCNC(=O)Nc1nc(NCC=C)nc2c(C)csc12 [Example 96, 2-Allylamino-4-(allylcarbamoyl)amino-7-methylthieno[3,2-d] pyrimidine]
95 to 96 °C	C=CCNC(=O)CCNc1nc(NCC=C)nc2c(C)csc12 [Example 112, 2-Allylamino-4-[2-(allylcarbamoyl)ethylamino]-7-methylthieno[3,2-d]pyrimidine]
90 to 92 °C	C=CCNc1nc(NCC(C)(C)C)c2scc(C)c2n1 [Example 67, 2-Allylamino-7-methyl-4-neopentylaminothieno[3,2-d] pyrimidine]
141 °C	C=CCNc1nc(NC(=O)NCCCC)c2scc(C)c2n1 [Example 97, 2-Allylamino-4-(butylcarbamoyl)amino-7-methylthieno[3,2-d] pyrimidine]
83 °C	C=CCNc1nc(NCC(=C)C)c2scc(C)c2n1 [Example 100, 2-Allylamino-7-methyl-4-(2-methyl-2-propenylamino)thieno[3,2-d]pyrimidine]
